# “Also recorded” adds a separate entry of the source.
# Tests used:
# [1] = tested on: peritoneal resident macrophages (PRM); assay: In vivo treatment/ex vivo PRM activation, TNFα and IL-6 in supernatant; parameters: species or system hVISTA mice; conditions: linker/payloads as anti-VISTA conjugates
# Protocol: Based thereon we developed a model to allow us to evaluate long-term anti-inflammatory impact of ADC on specific target populations, such as PRMs. […] In the absence of GC treatment, after 2h PRMs become highly activated as shown by increases in cytokine production. […] The objective of these studies was to evaluate the efficacy and pharmacodynamic range of INX human VISTA antibodies conjugated to a glucocorticoid payload as compared to free Dex.
# After euthanasia, mice were injected in the peritoneal cavity with 7 ml of PBS/0.5% BSA/2 mM EDTA. After a brief massage of the peritoneum, a small incision was performed and the peritoneal lavage collected. PRM were isolated using negative selection (Miltenyi kit, ref 130-110-434). Spleen were dissected and dissociated mechanically; monocytes were isolated using […] (Stem Cell, EasySep™ Mouse CD11b Positive Selection Kit II).
# PRMs were resuspended in RPMI 1640 with 10% FBS, 10 mM Hepes, Penicillin/Streptomycin and glutamine and 100,000 cells were plated per well in a 96-well tissue culture plate. Supernatants were collected at 2 and 24h post plating and stored at −80° C. […]
# • BioLegend (cat #430904) ELISA MAX Deluxe Set Mouse TNF-α • BioLegend (cat #431304) ELISA MAX Deluxe Set Mouse IL-6
# ELISAs were conducted following the manufacturer's included protocol.
# [2] = tested on: LPS stimulated human PBMCs; assay: LPS stimulated human PBMC, IL-1β and IL-6 ELISA; type: cell-based; conditions: for inhibition of IL-1β production / inhibition of IL-1β and IL-6 production: 24 hr
# Outline: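 Human PBMC (1-2 healthy donors), 150,000 cells/well, treated with test agents at 1,000 nM down to 1 nM or 0.2 nM, in duplicate. LPS at 1 ng/ml added immediately after free payload or 4 h after conjugates; IL-1β and IL-6 in supernatants measured by ELISA.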
# [3] = tested on: human PBMC; assay: Cytokine production (IL-1β, IL-6) at 24 hr by human PBMC incubated with 1 ng/mL LPS; type: cell-based; conditions: free steroid payloads, serial dilutions, 1 ng/mL LPS, 24 hr
# Protocol: FIG. 51: INX-SM-3, INX-SM-4, and INX-SM-1 inhibit IL-1β (left) and IL-6 (right) production. Cytokine levels were measured at 24 hr for human PBMCS incubated with 1 ng/mL LPS and serial dilutions (1000-1 nM) of steroid payloads, with the no treatment control plotted on the log-scale x-axis at <1 nM; n=1 donor, standard deviation plotted from technical duplicates.
# FIG. 52: INX-SM-1, INX-SM-3, INX-SM-4 and INX-SM-6 inhibit IL-1β production. Cytokine levels measured at 24 hr for human PBMCS incubated with 1 ng/ml LPS and serial dilutions (1000-1 nM) of steroid payloads, with the no treatment control plotted on the log-scale x-axis at <1 nM; n=1 donor, standard deviation plotted from technical duplicates.
# FIG. 53: INX-SM-9, INX-SM-31 and INX-SM-35 inhibit IL-1β (top) and IL-6 (bottom) production. Cytokine levels measured at 24 hr for human PBMCS incubated with 1 ng/mL LPS and serial dilutions (1000-0.2 nM) of steroid payloads, with the no treatment control plotted on the log-scale x-axis at <0.2 nM; n=2 donors-representative donor shown. Standard deviation plotted from technical duplicates.
# FIG. 54: INX-SM-32 inhibits IL-1β (top) and IL-6 (bottom) production. Cytokine levels measured at 24 hr for human PBMCS incubated with 1 ng/mL LPS and serial dilutions (500-1 nM) of steroid payloads, with the no treatment control plotted on the log-scale x-axis at <1 nM; n=2. Representative donor shown. Standard deviation plotted from technical duplicates.
# Cytokine levels measured at 24 hr for human PBMCS incubated with 1 ng/ml LPS and serial dilutions (1000-0.5 nM) of steroid payloads, with the no treatment control plotted on the log-scale x-axis at <0.5 nM; n=1 donor, standard deviation plotted from technical duplicates.
# FIG. 56: INX-SM-2 and INX-SM-7 show inhibition in IL-1β. Average Cytokine levels measured at 24 hr for human PBMCS incubated with 1 ng/ml LPS and serial dilutions (1000-0.16 nM) of steroid payloads, with the no treatment control plotted on the log-scale x-axis at <0.16 nM; n=1, standard deviation plotted from technical duplicates. […]
# Average cytokine levels measured at 24 hr for human PBMC incubated with 1 ng/ml LPS and serial dilutions (100-0.032 nM) of glucocorticoid payloads; n=1, mean of technical duplicates.
# Average cytokine levels measured at 24 hr for human PBMC incubated with 1 ng/mL LPS and serial dilutions (1000-0.32 nM) of glucocorticoid payloads; n=1, mean of technical duplicates.
# Cytokine levels measured at 24 hr for human PBMC incubated with 1 ng/mL LPS and serial dilutions (1000-0.5 nM) of steroid payloads, with the no treatment control plotted on the log-scale x-axis at <0.5 nM; n=1 donor, mean of technical duplicates plotted.
# Average cytokine levels for A. hull-1β B. huIL-6 measured at 24 hr for human PBMC incubated with 1 ng/mL LPS and serial dilutions (1000-0.16 nM) of conjugated steroid linker payloads, with the no treatment control plotted on the log-scale x-axis at <0.16 nM; n=1, standard deviation plotted from technical duplicates. Values above the ULOQ (12,500 pg/mL for IL-1b and 150,000 pg/mL for IL-6) were plotted as the extrapolated value.
# Average cytokine levels for IL-1β measured at 24 hr for human PBMC incubated with 1 ng/mL LPS and serial dilutions (1000-0.16 nM) of conjugated steroid linker payloads, with the no treatment control plotted on the log-scale x-axis at <0.16 nM; n=1, mean plotted of technical duplicates
# Average cytokine levels for IL-1β measured at 24 hr for human PBMC incubated with 1 ng/mL LPS and serial dilutions (1000-0.16 nM) of conjugated steroid linker payloads, with the no treatment control plotted on the log-scale x-axis at <0.16 nM; n=1, mean plotted of technical duplicates.
# FIG. 66: Analogs of INX V are potent relative to INX231J. […]
# [4] = Experiment 3: free payload 1000-0.2 nM, n=2 donors
Structure (SMILES),"inhibition of IL-1β production [2, 4]",inhibition of IL-1β production [3],inhibition of IL-6 production [3],also measured
"C[C@]12C=CC(=O)C=C1CC[C@@H]1[C@@H]2[C@@H](O)C[C@@]2(C)[C@H]1C[C@H]1O[C@@H](c3ccc(Cc4cccc(NC(=O)[C@H](CCC(=O)O)NC(=O)CNC(=O)CBr)c4)cc3)O[C@]12C(=O)CO [INX J, (S)-4-(2-(2-bromoacetamido)acetamido)-5-((3-(4-((6aR,6bS,7S,8aS,8bS,10R,11aR,12aS,12bS)-7-hydroxy-8b-(2-hydroxyacetyl)-6a,8a-dimethyl-4-oxo-2,4,6a,6b,7,8,8a,8b,11a,12,12a,12b-dodecahydro-1H-naphtho[2′,1′:4,5]indeno[1,2-d][1,3]dioxol-10-yl)benzyl)phenyl)amino)-5-oxopentanoic acid, reference compound]",,,,potency in PRM cytokine model when dosed 7 days early (conclusions) [1]: show similar potency when dosed 7 days early
"C[C@]12C=CC(=O)C=C1CC[C@@H]1[C@@H]2[C@@H](O)C[C@@]2(C)[C@H]1C[C@H]1O[C@@H](c3ccc(CC4COC5(CNC5)C4)cc3)O[C@]12C(=O)CO (stereo partly drawn) [INX-SM-31, (6aR,6bS,7S,8aS,8bS,11aR,12aS,12bS)-10-(4-((5-oxa-2-azaspiro[3.4]octan-7-yl)methyl)phenyl)-7-hydroxy-8b-(2-hydroxyacetyl)-6a,8a-dimethyl-1,2,6a,6b,7,8,8a,8b,11a,12,12a,12b-dodecahydro-4H-naphtho[2′,1′:4,5]indeno[1,2-d][1,3]dioxol-4-one]",dose dependent inhibition in IL-1β production; also recorded: the least potent compound among these compounds tested,inhibit,inhibit,potency of free payloads (conclusions) [2]: lowest potency among the R stereoisomers of the series
"C[C@]12C=CC(=O)C=C1CC[C@@H]1[C@@H]2[C@@H](O)C[C@@]2(C)[C@H]1C[C@H]1O[C@@H](c3ccc(CC4(N)CC(F)(F)C4)cc3)O[C@]12C(=O)CO [INX-SM-35, (6aR,6bS,7S,8aS,8bS,10R,11aR,12aS,12bS)-10-(4-((1-amino-3,3-difluorocyclobutyl)methyl)phenyl)-7-hydroxy-8b-(2-hydroxyacetyl)-6a,8a-dimethyl 1,2,6a,6b,7,8,8a,8b,11a,12,12a,12b-dodecahydro-4H-naphtho[2′,1′:4,5]indeno[1,2-d][1,3]dioxol-4-one]",dose dependent inhibition in IL-1β production,inhibit,inhibit,
"C[C@]12C=CC(=O)C=C1CC[C@@H]1[C@@H]2[C@@H](O)C[C@@]2(C)[C@H]1C[C@H]1O[C@@H](c3ccc(CC45CCC(N)(CC4)CC5)cc3)O[C@]12C(=O)CO [INX-SM-10, (6aR,6bS,7S,8aS,8bS,11aR,12aS,12bS)-10-(4-((4-aminobicyclo[2.2.2]octan-1-yl)methyl)phenyl)-7-hydroxy-8b-(2-hydroxyacetyl)-6a,8a-dimethyl-1,2,6a,6b,7,8,8a,8b,11a,12,12a,12b-dodecahydro-4H-naphtho[2′,1′:4,5]indeno[1,2-d][1,3]dioxol-4-one]",,robust inhibition,robust inhibition,inhibition of IL-1β and IL-6 production ([2]; Experiment 5: free payload 1000-0.5 nM): robust inhibition in IL-1β (top) and IL-6 (bottom) production
"C[C@]12C=CC(=O)C=C1CC[C@@H]1[C@@H]2[C@@H](O)C[C@@]2(C)[C@H]1C[C@H]1O[C@@H](C34CC(Cc5cccc(N)c5)(C3)C4)O[C@]12C(=O)CO [INX-SM-4, (6aR,6bS,7S,8aS,8bS,10R,11aR,12aS,12bS)-10-(3-(3-aminobenzyl)bicyclo[1.1.1]pentan-1-yl)-7-hydroxy-8b-(2-hydroxyacetyl)-6a,8a-dimethyl-1,2,6a,6b,7,8,8a,8b,11a,12,12a,12b-dodecahydro-4H-naphtho[2′,1′:4,5]indeno[1,2-d][1,3]dioxol-4-one]",,inhibit,inhibit,"inhibition of IL-1β and IL-6 production ([2]; Experiment 1: free payload 1000-1 nM, 1 ng/ml LPS, n=1 donor): inhibit both IL-1β and IL-6 production; inhibition of IL-1β production ([2]; Experiment 2: free payload 1000-1 nM, n=1 donor): show inhibition in IL-1β production"
"C[C@]12C=CC(=O)C=C1CC[C@@H]1[C@@H]2[C@@H](O)C[C@@]2(C)[C@H]1C[C@H]1O[C@@H](c3ccc(Cc4ncc(N)s4)cc3)O[C@]12C(=O)CO [INX-SM-7, (6aR,6bS,7S,8aS,8bS,10R,11aR,12aS,12bS)-10-(4-((5-aminothiazol-2-yl)methyl)phenyl)-7-hydroxy-8b-(2-hydroxyacetyl)-6a,8a-dimethyl-1,2,6a,6b,7,8,8a,8b,11a,12,12a,12b-dodecahydro-4H-naphtho[2′,1′:4,5]indeno[1,2-d][1,3]dioxol-4-one]",,inhibition,,inhibition of IL-1β production ([2]; Experiment 6: free payload 1000-0.16 nM): dose-dependent inhibition in IL-1β production
"C[C@]12C=CC(=O)C=C1CC[C@@H]1[C@@H]2[C@@H](O)C[C@@]2(C)[C@H]1C[C@H]1O[C@@H](c3ccc(CC45C6C7C4C4C5C6C74N)cc3)O[C@]12C(=O)CO (stereo partly drawn) [INX-SM-9, (6aR,6bS,7S,8aS,8bS,10R,11aR,12aS,12bS)-10-(4-((4-aminocuban-1-yl)methyl)phenyl)-7-hydroxy-8b-(2-hydroxyacetyl)-6a,8a-dimethyl-1,2,6a,6b,7,8,8a,8b,11a,12,12a,12b-dodecahydro-4H-naphtho[2′,1′:4,5]indeno[1,2-d][1,3]dioxol-4-one]",dose dependent inhibition in IL-1β production,inhibit,inhibit,

# — patent publication US20250108119A1, “NOVEL STEROID PAYLOADS, STEROID LINKERS, ADCs CONTAINING AND USE THEREOF” (IMMUNEXT, INC., priority 2021, published 2025)
